Laboratory results from US20140113306A1, “DIAGNOSTIC AND SCREENING METHODS FOR INFLAMMATION” (Rutgers, The State University of New Jersey, priority 2012, published 2014).

Tests used:
TLR4 = assay: Endotoxin/TLR4 signaling block in non-diabetic donor blood challenged with endotoxin in vitro; type: cell-based, human; details: 1 hour pretreatment, polymyxin 50 μg/ml or CLI-095; endotoxin 10 ng/ml 2 hours
Procedure: (§1) (A) Blood samples from a non-diabetic (N) and a type 2 diabetic patient were separated into plasma and cellular fractions (cellular F.) and mutually exchanged. Thus, plasma derived from the non-diabetic donor was added to the diabetic patient cellular fraction, and vice versa. Leukocytes were isolated at indicated time post-exchange, lysed and analyzed by immunoblotting. (B) Blood samples from a non-diabetic donor were treated with insulin (0.1 unit/ml) for the indicated time (lanes 1-7) or with endotoxin for 2 hours (lane 8) (C) Blood samples from a non-diabetic donor were untreated (UN) or treated for 1 hour with polymyxin (50 μg/ml) or CL-095 (30 μM). Endotoxin (Endo; 10 ng/ml) was next added to specified samples (lanes 2-4). Leukocytes were isolated 2 hours tater. (D and E) Blood samples obtained from a non-diabetic donor and two type 2 diabetic patients (identified as diabetic 1 and diabetic 2) were all separated into plasma and cellular fraction. The cellular fractions were either untreated (lane 4) or treated with polymyxin (lanes 5 and 8) or CLI-095 (lanes 6 and 9) for 1 hour. The samples shown in lanes 1-3 were not subjected to plasma exchange. (D) Plasma derived from diabetic 1 (lanes 4-6) or diabetic 2 (lanes 7-9) was added to the non-diabetic donor cellular fractions and (E) vice versa. The leukocytes were isolated at 4 hours post-exchange. Samples were analyzed as in (A).
(§2) Endotoxin (lipopolysaccharide from Escherichia coli 0111B4, Sigma, 10 ng/ml). Insulin (Humalog Mix 50/50; Lilly) was used at the indicated concentrations (0.05-1 unit/ml), Polymyxin (Invivogen, 50 μg/ml), CLI-095 (Invivogen; 3 μM), LY294002 (Cayman Chemical; 10 μM), Rapamycin (Tocris Bioscience; 100 nM), YC-1 (Sigma; 30 μM), Acriflavine (ACF; Sigma; 5 μM)
(§3) Human Subjects were enrolled in the study following the Institutional Review Board of Rutgers Robert Wood Johnson Medical School approval. Written informed consent was obtained from all participates prior to inclusion in the study. Blood was drawn into EDTA-containing tubes. To isolate leukocytes, lysis buffer (bicarbonate-buffered ammonium chloride solution, 0.826% NH4Cl, 0.1% KHCO3, 0.0037% Na4EDTA in H2O) was added at a ratio of 20:1 (lysis buffer/blood). Once the erythrocytes lysed, the samples were centrifuged for […] at 400×g. The leukocyte pellet was washed once with phosphate-buffered saline. The pellet was suspended in RIPA buffer (1% Triton X-100, 1% deoxycholic acid, 10 mM Tris-HCl, pH 7.2, 158 mM NaCl, 0.1% SDS, and 1 mM PMSF and complete protease inhibitor mixture (Roche Applied Science)). Lysates containing equal protein amounts were analyzed by immunoblotting. Where indicated, endotoxin, insulin, and/or inhibitors were added to the whole blood samples prior to leukocyte isolation.
To determine whether endotoxin is the component in diabetic patient plasma that regulates leukocyte activation, endotoxin/TLR4 signaling was blocked using two pharmacologic inhibitors, polymyxin and. CLI-095. Polymyxin is a natural polypeptide antibiotic that binds the lipid A moiety of endotoxin, and consequently interferes with endotoxin binding to TLR4. CLI-095, also known as TAK-242, is a specific TLR4 signaling inhibitor. As leukocytes express multiple Toll-like receptors (TLR) including TLR4, which binds endotoxin, TLR4 functions in the regulation of Akt/S6K1/mTOR axis is of interest.

[1] = test system: non-diabetic donor leukocytes; assay: Plasma exchange: diabetic patient plasma added to non-diabetic donor cellular fraction; type: cell-based, human; details: cellular fraction treated 1 hour before exchange; leukocytes isolated 4 hours post-exchange
Procedure: (A) Blood samples from a non-diabetic (N) and a type 2 diabetic patient were separated into plasma and cellular fractions (cellular F.) and mutually exchanged. Thus, plasma derived from the non-diabetic donor was added to the diabetic patient cellular fraction, and vice versa. Leukocytes were isolated at indicated time post-exchange, lysed and analyzed by immunoblotting. (B) Blood samples from a non-diabetic donor were treated with insulin (0.1 unit/ml) for the indicated time (lanes 1-7) or with endotoxin for 2 hours (lane 8) (C) Blood samples from a non-diabetic donor were untreated (UN) or treated for 1 hour with polymyxin (50 μg/ml) or CL-095 (30 μM). Endotoxin (Endo; 10 ng/ml) was next added to specified samples (lanes 2-4). Leukocytes were isolated 2 hours tater. […] Samples were analyzed as in (A).
For the plasma mixing experiments, the blood samples were sedimented at unit gravity for 1.5 hours. […] The leukocytes were subsequently isolated, lysed, and analyzed by immunoblotting.
Next, non-diabetic donor leukocytes and leukocytes from two type 2 diabetic patients were either untreated, or treated with either polymyxin or CLI-095 prior to the plasma/leukocytes exchange. As shown above, pS6K1, pIRS-1, and HIF-1α expression were all detected in non-diabetic donor leukocytes following exposure to diabetic patients plasma. […]

liver = details: pretreatment, endotoxin challenge; cited from earlier work
human leukocytes = assay: Ex vivo whole blood pretreated with inhibitors, then endotoxin; leukocyte Western blotting and ATP analyses; type: cell-based; details: for endotoxin-induced AMPKα degradation (change in AMPKα expression) / endotoxin-induced HIF-1α expression / endotoxin-induced autophagy (LC3-I/LC3-II) / endotoxin-induced decline in ATP levels: whole blood treated 2 hours with inhibitor prior to endotoxin 10 ng/ml; for autophagy in endotoxin-treated leukocytes: FIG. 7B: LY 10 μM 30 min, RAPA 100 nM 2 hours, YC-1 30 μM 30 min, ACF 5 μM 2 hours, then endotoxin 10 ng/ml 2 hours
Procedure: (A) Blood samples were treated with endotoxin (LPS; […]) for the indicated time. (B-D) Blood samples were untreated (control), treated for 2 hours with DMSO (vehicle), or the specified inhibitors prior to the addition of endotoxin (10 ng/ml). The inhibitors tested included: LY294002 (LY), Rapamycin (RAPA), YC-1, acriflavine (ACF), metformin (Met) and SRT1720 (SRT). Leukocytes were isolated at the indicated time post-endotoxin treatment and lysed. Lysates were subjected to Western blotting analyses, and where shown, ATP analyses. Details are provided in the supplement. (E) Proposed model for endotoxin-induced metabolic derangement in human leukocytes.
(§4) FIG. 7. provides the Toll-like receptor 4 signaling pathway in human leukocytes and the antagonistic effect of insulin. (A) Blood samples were treated with endotoxin (10 ng/ml) for the indicated time. (B) Blood samples were untreated (UN), or treated with DMSO (vehicle; 0.05%; 2 hours), LY294002 (LY; 10 μM; 30 min), rapamycin (RAPA; 100 nM, 2 ‘hours), YC-1 (30 μM; 30 min), or acriflavine (ACF; 5 μM; 2 hours). The samples shown in lanes 3-8 were subsequently treated with endotoxin (10 ng/ml) for 2 hours. (C) Blood samples were untreated (UN; lane 1), treated with endotoxin (10 ng/ml; lane 2) for 2 hours, or with insulin (1 unit/ml) for 2 hours (lane 3) or 1 hour (lane 4). The samples shown in lanes 5-9 were treated with endotoxin (10 ng/ml) plus insulin at the indicated concentration (1-0.05 unit/ml) for 2 hours, (D) Blood samples were treated with insulin (0.1 unit/ml) plus endotoxin (10ng/ml) for the indicated time, or with endotoxin alone (Endo, 10 ng/ml) for 2 hours. Leukocytes were isolated, lysed, and analyzed as described in FIG. 5. (E) Model describing the pattern of signaling indicators detected in leukocytes treated with endotoxin as compared to insulin.
To examine the signaling events linking endotoxin induced responses ex vivo with the altered metabolic/bioenergetic profile, the inventors examined the effect of pharmacological inhibitors implicated in the regulation of HIF-1α expression in other model systems. […] Furthermore, they indicate that distinct PI-3K effectors regulate HIF-1α stabilization and AMPKα degradation.
To examine the effect of metformin on human leukocytes bioenergetics, whole blood samples were pretreated with metformin ex vivo prior to the addition of endotoxin.
as §2, §3

[2] = diabetics treated with metformin; cited from earlier work
leukocytes = assay: Insulin treatment of whole blood from non-diabetic individuals; leukocyte immunoblotting; type: cell-based, human; details: insulin alone 0.1 unit/ml
Procedure: as §1, §2, §3
To establish the nature of the circulating factor enriched, in plasma from diabetics, multiple candidates were considered. As leukocytes express insulin receptor and circulating insulin is high in many type 2 and treated type 1 diabetic patients, insulin was chosen as the primary candidate. However, the insulin-signaling pathway in leukocytes is poorly characterized.

[3] = test system: endotoxin-treated leukocytes; assay: Insulin plus endotoxin in the in vitro whole blood system; leukocyte immunoblotting; type: cell-based, human
Procedure: as §4, §2, §3
Following food intake, especially if high in fat, human leukocytes might be exposed to increases in both insulin and endotoxin. Therefore, the combined effects of insulin and endotoxin on leukocytes were examined using the in vitro whole blood system. […] Insulin at a dose as low as 0.1 unit/ml also delayed onset of pAkt and pS6K1 in endotoxin-treated leukocytes (FIG. 7D).

[4] = insulin 0.1 unit/ml plus endotoxin 10 ng/ml
[5] = insulin higher than 0.1 unit/ml plus endotoxin 10 ng/ml, 2 hours

Molecule: CCOC(=O)C1=CCCC[C@H]1S(=O)(=O)Nc1ccc(F)cc1Cl [CLI-095]
- HIF-1α expression upon challenge with endotoxin (TLR4): prevented
- pIRS-1 upon challenge with endotoxin (TLR4): prevented
- pS6K1 upon challenge with endotoxin (TLR4): prevented
- pS6K1, pIRS-1, and HIF-1α expression following exposure to diabetic patients plasma [1]: inhibited

Molecule: Oc1ccc(C=Cc2cc(O)cc(O)c2)cc1 [Resveratrol, resveratrol]
- HIF-1α expression in the liver (liver): prevents
- Sirt1 degradation in the liver (liver): prevents
- autophagy in the liver (liver): prevents

Molecule: O=C(Nc1ccccc1-c1cn2c(CN3CCNCC3)csc2n1)c1cnc2ccccc2n1 [SRT1720]
- endotoxin-induced AMPKα degradation (change in AMPKα expression) (human leukocytes): did not
- endotoxin-induced HIF-1α expression (human leukocytes): block

Molecule: OCc1ccc(-c2nn(Cc3ccccc3)c3ccccc23)o1 [YC-1, 3-(5′-hydroxymethyl-2′-furyl)-1-benzylindazole]
- autophagy in endotoxin-treated leukocytes (human leukocytes): prevented
- endotoxin-induced AMPKα degradation (change in AMPKα expression) (human leukocytes): did not prevent
- endotoxin-induced autophagy (LC3-I/LC3-II) (human leukocytes): inhibited
- endotoxin-induced decline in ATP levels (human leukocytes): inhibited

Molecule: CN(C)C(=N)N=C(N)N [metformin]
- less cancer than diabetics treated with insulin [2]: 25-40%
- AMPKα phosphorylation (human leukocytes; metformin alone, no endotoxin): induced
- AMPKα phosphorylation (Thr 172) (human leukocytes; metformin pretreatment combined with endotoxin): induced
- endotoxin-induced AMPKα degradation (change in AMPKα expression) (human leukocytes): prevents
- endotoxin-induced HIF-1α expression (human leukocytes): prevents
- endotoxin-induced AMPKα degradation (change in AMPKα expression) (human leukocytes; listed as Metformin): inhibited
- endotoxin-induced HIF-1α expression (human leukocytes; listed as Metformin): inhibited

Molecule: acriflavine
- autophagy in endotoxin-treated leukocytes (human leukocytes): prevented
- endotoxin-induced AMPKα degradation (change in AMPKα expression) (human leukocytes): did not prevent
- endotoxin-induced autophagy (LC3-I/LC3-II) (human leukocytes): inhibited
- endotoxin-induced decline in ATP levels (human leukocytes): inhibited

Molecule: insulin: Insulin (Humalog Mix 50/50; Lilly)
- Raptor dephosphorylation (leukocytes): failed to induce
- increase in HIF-1α expression (leukocytes): failed to induce
- increase in autophagy (leukocytes): failed to induce
- pAkt (leukocytes): triggered increases
- pIRS-1 (leukocytes): failed to induce
- pS6K1 (leukocytes): triggered increases
- signaling pattern of leukocytes ([3]; endotoxin plus insulin at <0.1 unit/ml): the pattern observed in leukocytes treated with endotoxin alone
- onset of pAkt [3, 4]: delayed onset
- onset of pS6K1 [3, 4]: delayed onset
- HIF-1α expression [3, 5]: suppressed
- TLR4 expression [3, 5]: suppressed
- autophagy [3, 5]: suppressed
- dephosphorylation of Raptor [3, 5]: suppressed
- pIRS-1 [3, 5]: suppressed

Molecule: polymyxin
- HIF-1α expression upon challenge with endotoxin (TLR4): prevented
- pIRS-1 upon challenge with endotoxin (TLR4): prevented
- pS6K1 upon challenge with endotoxin (TLR4): prevented
- pS6K1, pIRS-1, and HIF-1α expression following exposure to diabetic patients plasma [1]: inhibited
